One test deals with TGF-β signaling. Nature of the test: Bioluminescence in SBE-luc reporter mice. The conditions noted are these: brain/CNS bioluminescence. Type of test: in vivo, mouse. Here is the method:
The most promising compounds out of these screens were tested for their neuroprotective potential in B103 rat neuroblastoma cells and primary mouse neurons derived from E16 forebrains. Compounds were also tested for their capacity to reduce varicosities and tortuosity in primary mouse neurons. Accordingly, novel neuroprotectant small molecules have been identified that are as potent or better than TGF-β. Importantly, they fulfilled the critical neuroprotective properties in neuronal cell lines and primary hippocampal mouse neurons. • Compounds based on the 11H core: The present compositions and methods include salts of the active compounds and formulations, in particular pharmaceutically acceptable compositions for administration to an animal or human subject and containing active compounds. 129 analogs or derivatives of 11H were screened by a cell-based assay for their ability to increase TGF-β activity, i.e. to act as a TGF agonist. In particular, one compound (a) designated as SRI-011381 (381) was identified as especially advantageous, although active derivatives thereof are contemplated and have been identified. • Effects of TGF-β analogs in vitro: Some of the small-molecule TGF-β agonist compounds were tested for neuroprotection activity and toxicity in vitro (cell culture). In addition, the mechanism of action of the agonists was explored using cells with different genetic backgrounds with respect to protein of the […] signaling pathway. • Animal studies: Transgenic mice harboring the SBE-luc reporter gene were generated and used to test the derivatives of compound 11H in vivo. These “reporter mice” mice express SBE-luc (i.e., “the transgene”) in all cells of the body. Intraperitoneal injection of luciferin into SBE-luc-expressing mice produces bioluminescence generated by luciferase and photons penetrating the skull can be imaged using sensitive camera systems.
SBE-luciferase transgenic mice: Two-month old SBE-luciferase transgenic mice receive different concentrations of a test compound either s.q., ip., or orally by gavage. […] Following administration of the test or control compounds, mice are injected with luciferin ip. At, for example, 2, 8, and 16 hours following injection of luciferin, the mice are imaged to detect bioluminescence as described above. Brains may be harvested 16 hours following test compound injection, and may be divided sagittally. For example, one hemi-brain can be homogenized in luciferase assay buffer for measurement of reporter gene activation, while the other hemi-brain can be frozen at −70° C. for future study, including sectioning into individual brain regions

The test system of another test is hippocampal neurons. Kind of test: Aβ-induced neuritic dystrophy in primary hippocampal neurons. Type of test: cell-based, mouse. As to conditions: for average numbers of dystrophic neurites per neuron: 21-22 DIV, 5 μM Aβ, 48 h. How it is done:
Primary hippocampal neurons isolated from E16 CF1 embryos were aged for 6-7 days or 21-22 days, then challenged with 5 μM oligomeric Aβ in the presence or absence of compounds, and assayed for neurotoxicity (cell survival as above) or neuritic dystrophy, respectively. For quantification of neuritic dystrophy, fixed cells were immune-stained with a MAP-2 monoclonal antibody to label dendrites.
Primary hippocampal neurons were isolated from E16 CF1 embryos. Twenty-four-well culture plates were coated with 10 μg/ml poly-L-lysine. Cells were seeded overnight at a density of 30,000 cells/well in DMEM/F-12 medium supplemented with 10% FBS and penicillin/streptomycin, and subsequently maintained in Neurobasal medium containing 2% B27 supplement. Cells were aged for 6-7 days or 21-22 days, then challenged with 5 μM Aβ in the presence or absence of compounds, and assayed for neurotoxicity or neuritic dystrophy, respectively. Cells were treated for 72 h for neurotoxicity assay and 48 h for neuritic dystrophy assay. At the end of treatment, an equal volume of 4% PFA was added, plates incubated at room temperature for 15 min and then washed three times with DPBS. Cells were kept in the last wash of DPBS at 4° C. until being counted or stained.
For quantification of neuritic dystrophy, fixed cells were immunostained with a MAP-2 monoclonal antibody (Sigma-Aldrich). […] MAP2 positive dendrites were observed under an inverted fluorescence microscope (Olympus). […] To quantify neurite curvature, an established method was modified for assessment of neurite curvature. Neurite tracks were digitized and approximated by a series of connected line segments using ImageJ (NIH). The angle of each segment was determined using a Sigmaplot macro, and the results were averaged to give the ‘mean differential curvature’. This parameter reflects the degree of neurite curvature with an increasing value indicating increased curvature. Neurite counting and quantification were performed in randomly selected fields (5 fields/well). All quantitative assessments were done by investigators blinded with respect to treatment conditions.

The subject of a further test is B103 neuroblastoma cells. Kind of test: B103 live/dead cell assay with Aβ. The conditions noted are these: Aβ 24 h; added 2 h before Aβ. Type of test: cell-based, rat. How it is done: SRI-11381 is neuroprotective in vitro: To determine if the TGF-β-inducing capacity of SRI-011381 would translate into biologically beneficial effects, its neuroprotective potential was tested in B103 rat neuroblastoma cells and primary mouse neurons derived from E16 forebrains. B103 neuroblastoma cells were cultured in 24-well plates and exposed to an oligomeric preparation of Aβ together with compounds or recombinant TGF-β.
FIGS. 3A-3H illustrate that SRI-011381 protects cultured neurons from Aβ toxicity. B103 neuroblastoma cells were incubated with Aβ for 24 h. The compounds and TGF-β were added 2 h before Aβ. Following incubations live and dead cells were assessed with calcein-acetoxymethylester (CAM) and SYTOX Orange (Invitrogen), respectively.
B103 neuroblastoma cells: B103 neuroblastoma cells were cultured in Dulbecco's modified Eagle's medium containing 10% fetal calf serum and 1% v/v penicillin/streptomycin (Invitrogen) in a 5% CO2: 95% air atmosphere. 10^4 cells/well were seeded onto 24 well plates and cultured for 24 h before Aβ was added. The compounds and TGF-β were added 2 h before Aβ. Following a 24 h incubation with Aβ, live and dead cells were assessed using calcein-acetoxymethylester (CAM) and SYTOX Orange (Invitrogen), respectively. AM is a membrane-permeable, fluorogenic esterase substrate that is hydrolyzed intracellularly to a green fluorescent product (calcein) in live cells. SYTOX Orange is a high-affinity nucleic acid stain that easily penetrates cells with compromised plasma membranes and yet will not cross the membranes of live cells. After incubation with SYTOX Orange, the nucleic acids of dead cells fluoresce bright orange. […] Five fields were randomly selected from each well and the cell numbers were analyzed by ImageJ (NIH) in a blinded fashion.

Two compounds from US9796674B2, “Benzyl urea derivatives for activating TGF-beta signaling” (THE BOARD OF TRUSTEES OF THE LELAND STANFORD JUNIOR …, priority 2013, dated 2017) can be followed below.

As for `C/C(=C\c1ccccc1)CN(CC1CCNCC1)C(=O)NC1=CCC=CC1` [Compound 11H, reference compound], the “activation of TGF-β signaling in SBE-luc reporter mice” value in the test on TGF-β signaling is “penetrate into the CNS and activate TGF-β signaling”. In the test with hippocampal neurons, the “average numbers of dystrophic neurites per neuron” value is recorded as “markedly reduced”.
On to “TGF-β1: Transforming Growth Factor-β, recombinant cytokine used as comparator”, for which the Aβ-induced cell death entry with B103 neuroblastoma cells is recorded as “inhibit Aβ-induced cell death”. For the same compound, in the test on hippocampal neurons, the “Aβ-induced increase in neurite curvature (mean differential curvature)” value was “prevented” and the “average numbers of dystrophic neurites per neuron” value is “markedly reduced”.
